The text below walks through data of patent publication US6951943B2, “Process for the preparation of phenylalanine enamide derivatives” (Celltech R & D Limited, priority 2002, dated 2005).

In general, melting point refers to the temperature, or range, at which the solid turns liquid. `CCOC(=O)[C@H](Cc1ccc(NC(=O)c2c(Cl)cncc2Cl)cc1)NC1=CC(=O)C12CCCCC2` [Example 1, Ethyl 2(S)-[(3-oxospiro[3.5]non-1-en-1-yl)amino]-3-{4-[(3,5-dichloroisonicotinoyl)amino]phenyl}propanoate]: the melting point was 194 °C.
Regarding `CCOC(=O)[C@H](Cc1ccc(Nc2nccc3ccncc23)cc1)NC1=CC(=O)C12CCOCC2` [Example 9, Ethyl 3-[4-([2,7]naphthyridin-1-ylamino)phenyl]-2(S)-[(3-oxo-7-oxa-spiro[3.5]non-1-en-1-yl)amino]propanoate], the melting point is 112 °C.
With `CCOC(=O)[C@H](Cc1ccc(Nc2nccc3ccncc23)cc1)NC1=C(SC(C)C)C(=O)C12CCOCC2` [Example 10, Ethyl 2(S)-[(2-isopropylsulfanyl-3-oxo-7-oxa-spiro[3.5]non-1-en-1-yl)amino]-3-[4-([2,7]naphthyridin-1-ylamino)phenyl]propanoate], the melting point is 221 °C.
